Columns and labels:
RARγ [1] = target: T1, RARγ (Homo sapiens, UniProt P13631); assay: ligand binding assay, RARγ; details: read-out: RAR Bind. K1 γ
T1 sequence (P13631 1-454): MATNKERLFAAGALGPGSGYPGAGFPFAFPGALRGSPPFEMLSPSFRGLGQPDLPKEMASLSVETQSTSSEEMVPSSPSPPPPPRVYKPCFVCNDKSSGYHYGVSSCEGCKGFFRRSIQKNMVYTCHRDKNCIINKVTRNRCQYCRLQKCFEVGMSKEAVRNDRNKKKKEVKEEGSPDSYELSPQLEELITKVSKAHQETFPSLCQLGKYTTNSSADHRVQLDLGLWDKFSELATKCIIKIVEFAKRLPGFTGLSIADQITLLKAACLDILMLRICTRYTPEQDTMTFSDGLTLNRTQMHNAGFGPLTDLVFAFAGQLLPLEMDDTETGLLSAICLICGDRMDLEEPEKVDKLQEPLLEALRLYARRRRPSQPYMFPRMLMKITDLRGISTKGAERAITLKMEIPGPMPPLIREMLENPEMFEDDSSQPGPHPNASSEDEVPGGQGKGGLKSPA
Text: The results obtained in this assay are expressed in EC50 numbers, as they are also in the chimeric receptor transactivation assay. The results of the ligand binding assay are expressed in Ki numbers.

[2] = system: female diabetic db/db mice; assay: serum glucose, triglyceride and thyroxine levels in db/db mice; type: in vivo; details: female db/db mice, Compound 27 50 mg/kg
Method: An assay described below tests the effect of compounds of the invention on serum glucose, tryglyceride and thyroxine levels in female 9-10 weeks old db/db mice.
Blood samples (70 μl) were taken by orbital bleeding at 11:00 AM on day 0 (pre-treatment), day 3, and day 6. On day 7, a blood sample (700 μl) was taken at 11:00 AM and the animals were sacrificed. Glucose, triglyceride and thyroxine (T4) levels were determined on a Boehringer Manheim Hatachi Clinical Chemistry Analyzer using standard protocols provided by the manufacturer and reagents that were supplied in commercially available kits (glucose and T4; Boehringer Manheim; triglycerides: Roche Diagnostics). Seven animals were treated in each group.

RXRγ = target: T2, RXRγ (Homo sapiens, UniProt P48443); assay: holoreceptor transactivation assay, RXRγ; type: cell-based; details: for RXR Trans. efficacy γ: efficacy as a percentage compared to the standard compound; for EC50: holoreceptor assay, read-out: RXR Trans. EC50 γ
T2 construct: expressed in transfected cells
T2 sequence (P48443 1-463): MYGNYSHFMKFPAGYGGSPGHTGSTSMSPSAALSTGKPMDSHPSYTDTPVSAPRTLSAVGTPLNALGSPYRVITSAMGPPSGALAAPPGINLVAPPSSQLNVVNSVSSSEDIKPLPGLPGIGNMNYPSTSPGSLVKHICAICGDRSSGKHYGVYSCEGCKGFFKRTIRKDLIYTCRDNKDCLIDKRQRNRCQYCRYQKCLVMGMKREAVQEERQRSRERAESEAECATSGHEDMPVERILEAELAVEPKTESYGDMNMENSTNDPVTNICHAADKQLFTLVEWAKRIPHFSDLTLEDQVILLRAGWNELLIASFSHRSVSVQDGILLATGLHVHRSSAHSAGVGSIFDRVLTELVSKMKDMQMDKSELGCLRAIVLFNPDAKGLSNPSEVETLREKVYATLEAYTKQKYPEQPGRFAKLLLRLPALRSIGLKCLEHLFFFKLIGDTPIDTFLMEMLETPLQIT
Text: (§1) Particularly, the transactivation data pertaining to activation of the RAR receptors were obtained in the chimeric assay, and the transactivation data pertaining to the activation of RXR receptors were obtained in the holoreceptor assay.

RARγ [3] = target: T3, RARγ (Homo sapiens, UniProt P13631); assay: chimeric receptor transactivation assay, RARγ; type: cell-based
T3 sequence (P13631 185-419 limits assumed): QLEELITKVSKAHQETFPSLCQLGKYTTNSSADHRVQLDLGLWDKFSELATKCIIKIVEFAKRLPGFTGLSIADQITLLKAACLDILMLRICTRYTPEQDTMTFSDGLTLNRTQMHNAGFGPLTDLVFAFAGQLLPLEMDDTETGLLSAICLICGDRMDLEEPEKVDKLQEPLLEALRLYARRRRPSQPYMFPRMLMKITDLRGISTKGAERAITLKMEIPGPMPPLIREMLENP
Text: (§2) One such assay is a chimeric receptor transactivation assay which tests for agonist-like activity in the RARα RARβ and RARγ receptor subtypes, and which is based on work published by Feigner P. L. and Holm M. (1989) Focus, 112 is described in detail in U.S. Pat. No. 5,455,265. The specification of U.S. Pat. No. 5,455,265 is hereby expressly incorporated by reference.
as §1, with “Table 1 discloses the activity of certain exemplary compounds of the invention in the above-described receptor transactivation and binding assays. Particularly,” for “Particularly,”

RARα = target: T4, RARα (Homo sapiens, UniProt P10276); assay: chimeric receptor transactivation assay, RARα; type: cell-based
T4 sequence (P10276 183-417 limits assumed): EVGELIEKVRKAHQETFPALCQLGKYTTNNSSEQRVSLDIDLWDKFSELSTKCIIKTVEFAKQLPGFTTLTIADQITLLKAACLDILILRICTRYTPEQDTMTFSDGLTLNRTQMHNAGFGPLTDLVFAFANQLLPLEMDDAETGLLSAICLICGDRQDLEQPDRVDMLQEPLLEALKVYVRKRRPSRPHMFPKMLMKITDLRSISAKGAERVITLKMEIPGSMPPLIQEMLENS
Text: as §2
as §1, with “Table 1 discloses the activity of certain exemplary compounds of the invention in the above-described receptor transactivation and binding assays. Particularly,” for “Particularly,”

[4] = day 0 (pre-treatment), groups: standard compound 5 mg/kg
[5] = oral gavage daily, standard compound 5 mg/kg
[6] = efficacy as a percentage compared to the standard compound

## CCOc1cc2c(cc1\C(CC)=C(F)/C=C/C(C)=C(\F)C(=O)O)C(C)(C)CCC2(C)C [Compound 27, (2Z,4E,6E)-7-(3-Ethoxy-5,5,8,8-tetramethyl-5,6,7,8-tetrahydro-naphthalen-2-yl)-2,6-difluoro-3-methyl-nona-2,4,6-trienoic acid]
RARγ [1]
  Ki: 6400 nM
[2]; [4]
  Glucose Day 0: 384 mg/dL
  Triglycerides Day 0: 152 mg/dL
[2]; oral gavage daily for seven days, standard compound 5 mg/kg
  T4 Day 7: 3.9 ± 0.9 µg/dL
[2]; [5]
  Glucose Day 3, 3 h: 290 mg/dL
  Glucose Day 6, 3 h: 225 mg/dL
  Triglycerides Day 3, 3 h: 106 mg/dL
RXRγ
  RXR Trans. efficacy γ: 23%
  EC50: 3 nM

## CCCOc1cc2c(cc1\C(C)=C(F)/C=C/C(C)=C(\F)C(=O)O)C(C)(C)CCC2(C)C [Compound 11, (2Z,4E,6E)-2,6-Difluoro-3-methyl-7-(5,5,8,8-tetramethyl-3-propoxy-5,6,7,8-tetrahydro-naphthalen-2-yl)-octa-2,4,6-trienoic acid]
RARγ [1]
  Ki: 250 nM
RARγ [3]; chimeric assay, read-out: RAR Trans. EC50 γ
  EC50: 180 nM
RARγ [3]; [6]
  RAR Trans. efficacy γ: 28%
RARα; chimeric assay, read-out: RAR Trans. EC50 α
  EC50: 5 nM
RARα; [6]
  RAR Trans. efficacy α: 12%

## CC/C(=C(F)/C=C/C(C)=C(\F)C(=O)O)c1cc2c(cc1OCOC)C(C)(C)CCC2(C)C [Compound 21, (2Z,4E,6E)-2,6-Difluoro-7-(3-methoxymethoxy-5,5,8,8-tetramethyl-5,6,7,8-tetrahydro-naphthalen-2-yl)-3-methyl-nona-2,4,6-trienoic acid]
RARγ [1]
  Ki: 940 nM
RXRγ
  RXR Trans. efficacy γ: 36%
  EC50: 8 nM

Reference: patent US6759547B1, “5,6,7,8-tetrahydronaphthalen-2-yl 2,6-difluoroheptatrienoic acid derivatives having serum glucose reducing activity” (Allergan, Inc., priority 2003, dated 2004)
